Reference: patent US20050042238A1, “Process for treating aqueous systems” (priority 2003, published 2005)

What was measured:
[1] = test system: algae; assay: Dosing of micro-mixed emulsion to cooling tower water, control of algae; conditions: isothiazolone 3 ppm in cooling water of a cooling tower; surfactant-free emulsion from micro-mixer
Method: A 50 wt. % solution of 4,5-dichloro-2-octyl-3-isothiazolone in benzyl alcohol is fed to an array of slit shaped interdigital micro-mixers at a feed rate of 50 mL/minute, combined with water fed to the micro-mixer at a feed rate of 600 mL/minute. The water contains no surfactants. The resulting emulsion exiting the micro-mixer it is directly dosed to cooling water in a 50,000 gallon […] cooling tower, where is effectively distributed and re-circulated throughout the cooling water. After about 20 minutes, the isothiazolone concentration in the cooling water reaches a desired concentration of 3 ppm and the emulsion feed is stopped. […] Focusing micro-mixers also produce similar results as compared to the micro-mixers described above. Melted 2-octyl-3-isothiazolone as a neat liquid is fed to an array of slit shaped interdigital micro-mixers at a feed rate of 50 mL/minute, combined with water fed to the micro-mixer at a feed rate of 600 mL/minute. The water contains no surfactants and solvents. The resulting emulsion exiting the micro-mixer it is directly dosed to cooling water in a 50,000 gallon […] cooling tower, where is effectively distributed and re-circulated throughout the cooling water. After about 20 minutes, the isothiazolone concentration in the cooling water reaches a desired concentration of 3 ppm and the emulsion feed is stopped. […]

[2] = test system: mold; assay: Dosing of micro-mixed emulsion to paper pulp slurry tank, mold proofing of paper; conditions: 50 wt. % solution in benzyl alcohol micro-mixed with water, charged to 10,000 liter pulp slurry tank
Method: A 10,000 liter pulp slurry tank has a continuous throughput averaging 6,600 liters/minute. A 50 wt. % solution of 4,5-dichloro-2-octyl-3-isothiazolone in benzyl alcohol is fed to an array of slit shaped interdigital micro-mixers at a feed rate of 56 mL/minute, combined with water fed to the micro-mixer at a feed rate of 600 mL/minute. The water contains no surfactants. The resulting emulsion exiting the micro-mixer is directly charged to water in the pulp slurry tank, where it is effectively distributed and re-circulated throughout the tank water. […] Focusing micro-mixers also produce similar results as compared to the micro-mixers described above.

Compound	control of algae in cooling water [1]	mold proofing in paper prepared from treated pulp [2]
CCCCCCCCn1sc(Cl)c(Cl)c1=O [4,5-dichloro-2-octyl-3-isothiazolone]	Effective control of algae	effective mold proofing
CCCCCCCCn1sccc1=O [2-octyl-3-isothiazolone]	Effective control of algae	
